Where “and” joins values, the source holds several entries; their conditions need not be identical. Equal entries are not always repeated.
Legend:
[1] = tested on: rat model of infrarenal abdominal aorta-vena cava fistula (AV fistula); assay: AV fistula model: cumulative urinary sodium excretion; format: in vivo, Sprague Dawley rats; settings: PO; for Urinary sodium (cumulative sodium excretion): 7 days of treatment, AV fistula rats; for % change in urinary sodium: 7 days, against vehicle control
Excerpt: Sprague Dawley rats will be used in the study at the age to 6-8 weeks. A midline abdominal incision will be made under anesthesia to expose the vena cava and abdominal aorta distal to the origin of the renal arteries. A longitudinal incision will be performed in the outer wall of the vena cava. The common wall between the aorta and vena cava will be grabbed through the incision and a fistula (1.0-1.2 mm outer diameter) will be created between the vena cava and aorta. The opening of the outer wall of the vena cava will be closed with a continuous suture. After the surgical procedure, the animals will be allowed to recover with daily monitoring of urine output and sodium excretion in metabolic cages. A matched group of sham-operated rats will serve as controls. After a week of surgical operation, rats will be divided into subgroups according to their daily absolute rate of sodium excretion. Fimasartan or its pharmaceutically acceptable salt, or Sacubitril or its pharmaceutically acceptable salt or their combination will be taken as a low dose, middle dose, and high dose group. Animals will be treated daily for four weeks with weekly measurement of blood pressure. Additionally, sodium excretion and creatinine clearance will be measured twice weekly. In the rat model of infrarenal abdominal aorta-vena cava fistula (AV fistula), workload on heart increases by sustained volume overload, this reduces sodium excretion and leads to cardiac hypertrophy. […] Sprague Dawley rats in these experimental groups were treated daily by gavage for seven days and urine volume and sodium excretion were daily measured. Rats treated with vehicle served as controls. Rats with sham operation or animals with arterio-venous fistula treated with vehicle served as controls. Animals were randomized based on 24 h urinary sodium excretion. Animals with <100 μEq/24 h urinary sodium excretion were selected in study except sham control animals. Treatment was initiated for 7 days with daily measurement of sodium excretion and results were expressed as cumulative urinary sodium excretion. […] These observations indicate that combination of fimasartan and sacubitril reduce volume overload associated with AV Fistula. After completion of the treatment period, mean arterial blood pressure was evaluated from animals from different experimental groups.

[2] = tested on: rat model of infrarenal abdominal aorta-vena cava fistula (AV fistula); assay: AV fistula model: mean arterial blood pressure; format: in vivo, Sprague Dawley rats; settings: for % change in meal arterial pressure / Mean arterial pressure: PO; for % change in meal arterial pressure: 7 days, against vehicle control; for Mean arterial pressure: after 7 days of treatment, AV fistula rats; for reduction of mean arterial blood pressure: after treatment period, in comparison to vehicle control, given as reduction
Excerpt: Sprague Dawley rats will be used in the study at the age to 6-8 weeks. A midline abdominal incision will be made under anesthesia to expose the vena cava and abdominal aorta distal to the origin of the renal arteries. A longitudinal incision will be performed in the outer wall of the vena cava. The common wall between the aorta and vena cava will be grabbed through the incision and a fistula (1.0-1.2 mm outer diameter) will be created between the vena cava and aorta. The opening of the outer wall of the vena cava will be closed with a continuous suture. After the surgical procedure, the animals will be allowed to recover with daily monitoring of urine output and sodium excretion in metabolic cages. A matched group of sham-operated rats will serve as controls. After a week of surgical operation, rats will be divided into subgroups according to their daily absolute rate of sodium excretion. Fimasartan or its pharmaceutically acceptable salt, or Sacubitril or its pharmaceutically acceptable salt or their combination will be taken as a low dose, middle dose, and high dose group. Animals will be treated daily for four weeks with weekly measurement of blood pressure. Additionally, sodium excretion and creatinine clearance will be measured twice weekly. In the rat model of infrarenal abdominal aorta-vena cava fistula (AV fistula), workload on heart increases by sustained volume overload, this reduces sodium excretion and leads to cardiac hypertrophy. Rats receiving fimasartan (5, 10 and 30 mg/kg/day), sacubitril (25, 50 and 75 mg/kg/day) and combination (fimasartan 10 mg/kg and sacubitril 50 mg/kg) were evaluated in AV fistula model. Sprague Dawley rats in these experimental groups were treated daily by gavage for seven days and urine volume and sodium excretion were daily measured. Rats treated with vehicle served as controls. Rats with sham operation or animals with arterio-venous fistula treated with vehicle served as controls. Animals were randomized based on 24 h urinary sodium excretion. Animals with <100 μEq/24 h urinary sodium excretion were selected in study except sham control animals. Treatment was initiated for 7 days with daily measurement of sodium excretion and results were expressed as cumulative urinary sodium excretion. […] These observations indicate that combination of fimasartan and sacubitril reduce volume overload associated with AV Fistula. After completion of the treatment period, mean arterial blood pressure was evaluated from animals from different experimental groups.

[3] = tested on: five sixth nephrectomized rats; assay: Subtotal nephrectomy induced hypertension: blood pressure; format: in vivo, Sprague Dawley rats; settings: four weeks
Experimental: Fimasartan 10 mg/kg and Sacubitril 50 mg/kg and combination were administered for 4 weeks. Prior to initiation, Sprague Dawley rats were randomized based on their systolic blood pressure after one week of recovery. These experimental groups were treated daily by gavage for four weeks and their weekly blood pressure was measured. Rats treated with vehicle served as controls and sham operated animals treated with vehicle served as sham controls. […] Experimental model of acute cardiac failure is characterized by several features that closely mimic the pathophysiological consequences of CHF in patients, includes the characteristic neurohumoral activation, decrease in renal perfusion, sodium retention and cardiac hypertrophy (J Biomed Biotechnol. 2011; 2011: 729497). […] Five sixth nephrectomy represent a model of hypertension in rats and in clinic it has been observed that loss of renal mass is associated with increased hypertension (APMIS. 1992 December; 100(12):1097-105; International Journal of Urology (2015) 22, 797-804).

NEP = NEP (Homo sapiens, UniProt P08473); settings: in vivo; cited from earlier work
Chain of NEP (P08473 whole entry): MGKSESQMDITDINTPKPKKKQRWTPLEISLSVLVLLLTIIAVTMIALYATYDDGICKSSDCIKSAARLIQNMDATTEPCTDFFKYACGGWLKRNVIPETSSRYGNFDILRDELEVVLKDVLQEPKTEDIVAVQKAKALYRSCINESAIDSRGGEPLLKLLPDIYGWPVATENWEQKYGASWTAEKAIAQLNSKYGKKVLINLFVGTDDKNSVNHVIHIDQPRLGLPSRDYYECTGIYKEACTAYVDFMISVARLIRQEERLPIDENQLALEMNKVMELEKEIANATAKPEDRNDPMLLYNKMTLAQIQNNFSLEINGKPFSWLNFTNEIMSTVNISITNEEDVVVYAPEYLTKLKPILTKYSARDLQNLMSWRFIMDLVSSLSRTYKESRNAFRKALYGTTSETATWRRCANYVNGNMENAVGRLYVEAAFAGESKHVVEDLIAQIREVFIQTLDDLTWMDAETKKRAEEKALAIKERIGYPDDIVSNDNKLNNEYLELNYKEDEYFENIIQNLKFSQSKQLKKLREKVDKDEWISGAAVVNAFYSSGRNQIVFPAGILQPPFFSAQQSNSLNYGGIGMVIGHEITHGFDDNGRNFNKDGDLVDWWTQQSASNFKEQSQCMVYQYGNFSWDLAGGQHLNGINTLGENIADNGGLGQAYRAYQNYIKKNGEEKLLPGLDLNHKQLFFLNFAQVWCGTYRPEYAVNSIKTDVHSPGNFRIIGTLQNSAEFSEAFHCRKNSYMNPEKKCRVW

Compound: CCCCc1nc(C)c(CC(=S)N(C)C)c(=O)n1Cc1ccc(-c2ccccc2-c2nnn[nH]2)cc1 [Fimasartan, 2-n-butyl-5-dimethylaminothiocarbonyl-methyl-6-methyl-3-[[2′-(1H-tetrazol-5-yl)biphenyl-4-yl]methyl]pyrimidin-4(3H)-one]
- Urinary sodium (cumulative sodium excretion) ([1]; fimasartan 5 mg/kg): 4784.8 ± 497.5 μeq/24 h
- % change in urinary sodium ([1]; fimasartan 5 mg/kg): 31.1 ± 13.6 %
- % change in urinary sodium ([1]; fimasartan 5 mg/kg, listed as fimasartan): 31.1±13.6%
- Urinary sodium (cumulative sodium excretion) ([1]; fimasartan 10 mg/kg): 5179.7 ± 451.2 μeq/24 h and 5179.7 ± 443.7 μeq/24 h
- % change in urinary sodium ([1]; fimasartan 10 mg/kg): 41.9 ± 12.2 % and 51.2 ± 11.9 %
- % change in urinary sodium ([1]; fimasartan 10 mg/kg, listed as fimasartan): 41.9±12.2%
- Urinary sodium (cumulative sodium excretion) ([1]; fimasartan 20 mg/kg): 6664.7 ± 448.2 μeq/24 h
- % change in urinary sodium ([1]; fimasartan 20 mg/kg): 82.6 ± 13.1 %
- % change in urinary sodium ([1]; fimasartan 20 mg/kg, listed as fimasartan): 82.6±13.1%
- % change in meal arterial pressure ([2]; fimasartan 10 mg/kg): −5.9 ± 1.9 %
- Mean arterial pressure ([2]; fimasartan 10 mg/kg): 111.7 ± 2.3 mmHg
- reduction of mean arterial blood pressure ([2]; fimasartan alone (FIG. 2)): 5.9±1.9%
- reduction in blood pressure against vehicle control ([3]; Fimasartan 10 mg/kg daily by gavage): 15.9%

Compound: CCOC(=O)[C@H](C)C[C@@H](Cc1ccc(-c2ccccc2)cc1)NC(=O)CCC(=O)O [Sacubitril, 4-[[(2S,4R)-5-ethoxy-4-methyl-5-oxo-1-(4-phenylphenyl)pentan-2-yl]amino]-4-oxobutanoic acid]
- Urinary sodium (cumulative sodium excretion) ([1]; sacubitril 25 mg/kg): 5185.7 ± 443.7 μeq/24 h
- % change in urinary sodium ([1]; sacubitril 25 mg/kg): 41.9 ± 12.2 %
- % change in urinary sodium ([1]; sacubitril 25 mg/kg, listed as sacubitril): 41.9±12.1%
- Urinary sodium (cumulative sodium excretion) ([1]; sacubitril 50 mg/kg): 6678.7 ± 451.7 μeq/24 h
- % change in urinary sodium ([1]; sacubitril 50 mg/kg): 82.6 ± 13.5 %
- % change in urinary sodium ([1]; sacubitril 50 mg/kg, listed as sacubitril): 82.6±13.5%
- Urinary sodium (cumulative sodium excretion) ([1]; sacubitril 75 mg/kg): 9129.7 ± 449.7 μeq/24 h
- % change in urinary sodium ([1]; sacubitril 75 mg/kg): 150.1 ± 10.4 %
- % change in urinary sodium ([1]; sacubitril 75 mg/kg, listed as sacubitril): 150.1±10.4%
- % change in meal arterial pressure ([2]; sacubitril 50 mg/kg): −8 ± 1.9 %
- Mean arterial pressure ([2]; sacubitril 50 mg/kg): 109.2 ± 2.2 mmHg
- reduction of mean arterial blood pressure ([2]; sacubitril alone (FIG. 2)): 8.0±1.9%
- reduction in blood pressure against vehicle control ([3]; Sacubitril 50 mg/kg daily by gavage): 18.7%

Compound: COCCOC[C@H](CC1(C(=O)N[C@H]2CC[C@@H](C(=O)O)CC2)CCCC1)C(=O)O [candoxatrilat]
- natriuretic and cyclic GMP responses to a low-dose ANP infusion (NEP): potentiates
